From paper PMC8160210, “Single tryptophan Y160W mutant of homooligomeric E. coli purine nucleoside phosphorylase implies that dimers forming the hexamer are functionally not equivalent” (Scientific Reports, 2021) come the findings set out here.

For this assay, the target named is Y160W PNP mutant (Escherichia coli, UniProt P0ABP8, Y161W). Kind of assay: Thermophoretic (MST) titrations with phosphate. On the set-up: made in house; host or cells: E. coli DH5α-T1; species or system E. coli. To be noted: two-binding-site model, 25 °C. Here is the method: Measurements were performed with Monolith NT115 (NanoTemper). Enzyme was labelled with NT647 fluorescent dye (NanoTemper) according to the protocol provided by the manufacturer. Labelled proteins show fluorescence excitation and emission maxima of approximately 650 and 670 nm, respectively. The series of titrations were performed at a constant protein concentration. Both proteins (WT and mutant), and ligands were dissolved in 50 mM Tris/HCl pH 7.6 buffer, measurements were performed at 25 °C. […] In the pre-experiments, it was carefully checked for both proteins, WT and Y160W mutant whether any sign of aggregation or inactivation occurs, and if mutant behaviour is similar to that of the WT enzyme. […]
Sequence of Y160W PNP mutant (P0ABP8 2-239 Y161W): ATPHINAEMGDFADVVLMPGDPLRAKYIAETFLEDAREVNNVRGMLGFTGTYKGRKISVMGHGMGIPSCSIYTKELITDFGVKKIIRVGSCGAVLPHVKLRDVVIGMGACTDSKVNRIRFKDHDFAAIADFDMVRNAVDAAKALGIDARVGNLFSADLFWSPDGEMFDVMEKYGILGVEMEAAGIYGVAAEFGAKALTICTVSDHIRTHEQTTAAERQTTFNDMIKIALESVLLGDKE
For experiments of the binary complex formation with phosphate, curves were measured at four different powers of the heating laser. Two to five titrations at each heating power were measured, and curves were averaged for a particular heating power. […] This is an area inaccessible in fluorescence titration due to the quenching of the protein fluorescence at such a high ionic strength of the solution. […]
Titration series were analysed globally, always starting from the simplest, one-binding-site model. […] For all tested models the Akaike information criterion[23] was also calculated. […]

pKd: −log10 of the molar value. Where two headings read alike, the source gives them in different places.

For `O=P(O)(O)O` [Pi, Orthophosphate], the pKd runs as follows: (50 mM Tris/HCl pH 7.6, read-out: Kd1 ± SD) 5.49; (50 mM Tris/HCl pH 7.6, read-out: Kd3 ± SD) 2.89.
